Experimental data: the supplement of paper PMC10307832

Columns and labels:
Experiment in all cases: relative viability (nuclei count vs DMSO), 5 days (fraction); higher = more cells survive
Bexarotene + AZD7762 = compound: C=C(c1ccc(C(=O)O)cc1)c1cc2c(cc1C)C(C)(C)CCC2(C)C [Bexarotene] + NC(=O)Nc1cc(-c2cccc(F)c2)sc1C(=O)N[C@H]1CCCNC1 [AZD7762] (partner 0.2 µM)
Summary of the method: (§1)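 Each reported value is a median over duplicate plates. It expresses relative viability: treated-well nuclei count divided by vehicle-well nuclei count. Lung cancer cell lines in 1536-well plates were dosed by pin tool a day after seeding, alone with one drug or with a fixed anchor-drug dose plus five library-drug doses (not always all listed) in √10 steps, and nuclei were counted after 5 days.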

Bexarotene + Alpelisib = compound: C=C(c1ccc(C(=O)O)cc1)c1cc2c(cc1C)C(C)(C)CCC2(C)C [Bexarotene] + Cc1nc(NC(=O)N2CCC[C@H]2C(N)=O)sc1-c1ccnc(C(C)(C)C(F)(F)F)c1 [Alpelisib] (partner 2 µM)
Summary of the method: as §1

Bexarotene + Phenformin = compound: C=C(c1ccc(C(=O)O)cc1)c1cc2c(cc1C)C(C)(C)CCC2(C)C [Bexarotene] + N=C(N)NC(=N)NCCc1ccccc1 [Phenformin] (partner 250 µM)
Summary of the method: as §1

Bexarotene + Pictilisib = compound: C=C(c1ccc(C(=O)O)cc1)c1cc2c(cc1C)C(C)(C)CCC2(C)C [Bexarotene] + CS(=O)(=O)N1CCN(Cc2cc3nc(-c4cccc5[nH]ncc45)nc(N4CCOCC4)c3s2)CC1 [Pictilisib] (partner 1 µM)
Summary of the method: as §1

Cell Line | relative viability (Bexarotene + AZD7762; first compound 0.08 µM) | relative viability (Bexarotene + AZD7762; first compound 0.253 µM) | relative viability (Bexarotene + AZD7762; first compound 0.8 µM) | relative viability (Bexarotene + AZD7762; first compound 2.53 µM) | relative viability (Bexarotene + AZD7762; first compound 8 µM) | relative viability (Bexarotene + Alpelisib; first compound 0.08 µM) | relative viability (Bexarotene + Alpelisib; first compound 0.253 µM) | relative viability (Bexarotene + Alpelisib; first compound 0.8 µM) | relative viability (Bexarotene + Alpelisib; first compound 2.53 µM) | relative viability (Bexarotene + Alpelisib; first compound 8 µM) | relative viability (Bexarotene + Phenformin; first compound 0.08 µM) | relative viability (Bexarotene + Phenformin; first compound 0.253 µM) | relative viability (Bexarotene + Phenformin; first compound 0.8 µM) | relative viability (Bexarotene + Phenformin; first compound 2.53 µM) | relative viability (Bexarotene + Phenformin; first compound 8 µM) | relative viability (Bexarotene + Pictilisib; first compound 0.08 µM) | relative viability (Bexarotene + Pictilisib; first compound 0.253 µM) | relative viability (Bexarotene + Pictilisib; first compound 0.8 µM) | relative viability (Bexarotene + Pictilisib; first compound 2.53 µM) | relative viability (Bexarotene + Pictilisib; first compound 8 µM)
HCC-366 | 0.412 | 0.397 | 0.284 | 0.279 | 0.358 | 0.529 | 0.408 | 0.411 | 0.489 | 0.463 | 0.624 | 0.608 | 0.579 | 0.533 | 0.597 | 0.23 | 0.178 | 0.165 | 0.141 | 0.29
HCC-827 | 0.227 | 0.213 | 0.405 | 0.196 | 0.36 | 1.05 | 0.844 | 0.969 | 1.04 | 0.917 | 0.51 | 0.444 | 0.493 | 0.463 | 0.444 | 1.07 | 1.08 | 0.888 | 1.02 | 0.971
HOP-62 | 0.626 | 1.04 | 0.718 | 0.412 | 0.669 | 1.35 | 1.4 | 1.03 | 1.12 | 0.917 | 0.738 | 0.701 | 0.698 | 0.651 | 0.571 | 1.04 | 0.811 | 0.684 | 0.79 | 0.626
LC-2-ad | 0.87 | 0.907 | 0.875 | 0.867 | 0.928 | 0.872 | 1.15 | 0.762 | 0.96 | 0.861 | 0.607 | 0.578 | 0.611 | 0.521 | 0.546 | 0.809 | 0.473 | 0.433 | 0.503 | 0.381
LCLC-97TM1 | 0.252 | 0.35 | 0.398 | 0.263 | 0.237 | 0.333 | 0.285 | 0.274 | 0.264 | 0.263 | 0.473 | 0.438 | 0.406 | 0.454 | 0.451 | 0.265 | 0.188 | 0.209 | 0.214 | 0.213
LCLC-103H | 0.807 | 0.78 | 0.64 | 0.796 | 0.842 | 1.03 | 0.968 | 1.04 | 1.09 | 0.993 | 0.373 | 0.349 | 0.314 | 0.348 | 0.347 | 0.71 | 0.642 | 0.529 | 0.653 | 0.631
LK-2 | 0.675 | 0.516 | 0.547 | 0.433 | 0.418 | 1.15 | 1.12 | 1.12 | 1.25 | 1.15 | 1.15 | 0.506 | 0.381 | – | 0.47 | 0.933 | 0.711 | 0.824 | 0.659 | 0.785
LOU-NH91 | 0.85 | 0.766 | 0.759 | 0.741 | 0.712 | 0.633 | 0.653 | 0.601 | 0.632 | 0.616 | 0.687 | 0.673 | 0.595 | 0.6 | 0.49 | 0.546 | 0.537 | 0.508 | 0.492 | 0.505
LU99A | 0.356 | 0.444 | 0.391 | 0.404 | 0.36 | 0.592 | 0.57 | 0.535 | 0.475 | 0.61 | 1.24 | 0.89 | 0.862 | 0.829 | 0.912 | 0.377 | 0.407 | 0.379 | 0.297 | 0.323
LXF-289 | 1.21 | 1.34 | 1.32 | 1.37 | 1.48 | 1.04 | 1.1 | 1.06 | 1.04 | 0.983 | 0.591 | 0.544 | 0.523 | 0.516 | 0.508 | 0.798 | 0.68 | 0.711 | 0.581 | 0.604
NCI-H23 | 0.297 | 0.239 | 0.231 | 0.261 | 0.196 | 0.812 | 0.782 | 0.551 | 0.829 | 0.656 | 0.854 | 0.759 | 0.694 | 0.763 | 0.712 | 0.623 | 0.489 | 0.44 | 0.516 | 0.52
NCI-H322M | 0.518 | 0.645 | 0.585 | 0.548 | 0.568 | 0.846 | 0.881 | 0.809 | 0.771 | 0.874 | 0.969 | 0.825 | 0.814 | 0.775 | 0.789 | 0.573 | 0.408 | 0.544 | 0.514 | 0.502
NCI-H358 | 0.546 | 0.511 | 0.505 | 0.49 | 0.572 | 1.07 | 0.881 | 0.579 | 1.03 | 0.923 | 0.48 | 0.396 | 0.372 | 0.33 | 0.39 | 0.377 | 0.364 | 0.376 | 0.435 | 0.351
NCI-H441 | 1.5 | 1.28 | 1.24 | 1.1 | 1.01 | 1.09 | 1.06 | 0.727 | – | 0.841 | 1.03 | 0.743 | 0.811 | 0.864 | 0.868 | 0.628 | 0.511 | 0.524 | 0.482 | 0.616
NCI-H460 | 0.694 | 0.701 | 0.701 | 0.668 | 0.735 | 0.654 | 0.733 | 0.539 | 0.596 | 0.519 | 0.552 | 0.543 | 0.494 | 0.455 | 0.427 | 0.471 | 0.343 | 0.396 | 0.302 | 0.371
NCI-H596 | 1.19 | 1.01 | 1.01 | 0.976 | 1.02 | 0.581 | 0.6 | 0.479 | 0.668 | 0.565 | 0.811 | 0.743 | 0.747 | 0.828 | 0.776 | 0.397 | 0.441 | 0.299 | 0.363 | 0.426
NCI-H647 | 0.429 | 0.463 | 0.459 | 0.272 | 0.33 | 1.06 | 1.15 | 1.13 | 1.1 | 0.843 | 0.588 | 0.472 | 0.519 | 0.53 | 0.43 | 0.378 | 0.356 | 0.429 | – | 0.358
NCI-H650 | 1.13 | 0.986 | 1.17 | 0.709 | 1.05 | 1.18 | 1.06 | 1.08 | 1.06 | 1 | 0.486 | 0.518 | 0.472 | 0.39 | 0.439 | 0.946 | 0.939 | 0.851 | 0.753 | 0.858
NCI-H727 | 0.537 | 0.635 | 0.598 | 0.617 | 0.633 | 0.808 | 0.522 | 0.503 | 0.58 | 0.701 | 0.51 | 0.481 | 0.574 | 0.515 | 0.503 | 0.463 | 0.36 | 0.348 | 0.346 | 0.355
NCI-H838 | 1.03 | 1.09 | 0.989 | 0.978 | 0.938 | 1.1 | 1.11 | 1.14 | 1.08 | 1.06 | 0.585 | 0.595 | 0.504 | 0.608 | 0.634 | 0.557 | 0.5 | 0.51 | 0.638 | 0.578
NCI-H1355 | 0.868 | 0.841 | 0.671 | 0.9 | 0.682 | 0.957 | 0.894 | 0.765 | 0.916 | 0.876 | 0.467 | 0.481 | 0.433 | 0.404 | 0.447 | 0.604 | 0.622 | 0.358 | 0.561 | 0.486
NCI-H1395 | 0.399 | 0.432 | 0.39 | 0.407 | 0.39 | 1.18 | 1.06 | 0.93 | 1.03 | 1.08 | 0.456 | 0.457 | 0.412 | 0.415 | 0.471 | 0.678 | 0.603 | 0.571 | 0.807 | 0.762
NCI-H1437 | 1.2 | 1.14 | 1.19 | 1.14 | 1.15 | 1.02 | 1.06 | 0.946 | 1.11 | 0.829 | 0.307 | 0.327 | 0.301 | 0.392 | 0.32 | 0.572 | 0.447 | 0.56 | 0.601 | 0.542
NCI-H1651 | 0.544 | 0.491 | 0.525 | 0.454 | 0.549 | 1 | 1 | 1.09 | 0.997 | 0.921 | 0.446 | 0.318 | 0.307 | 0.357 | 0.345 | 0.837 | 0.52 | 0.723 | 0.674 | 0.593
NCI-H1666 | 1.02 | 0.839 | 0.82 | 0.817 | 0.895 | 1 | 0.877 | 0.862 | 0.897 | 0.761 | 0.611 | 0.531 | 0.525 | 0.581 | 0.561 | 0.256 | 0.337 | 0.359 | 0.58 | 0.459
NCI-H1734 | 0.552 | 0.536 | 0.522 | 0.488 | 0.526 | 0.718 | 0.708 | 0.652 | 0.637 | 0.633 | 0.414 | 0.339 | 0.421 | 0.335 | 0.382 | 0.559 | 0.462 | 0.4 | 0.442 | 0.43
NCI-H1755 | 0.536 | 0.6 | 0.439 | 0.569 | 0.54 | 0.917 | 1.05 | 0.94 | 0.876 | 0.917 | 0.717 | 0.679 | 0.623 | 0.601 | 0.622 | 0.457 | 0.454 | 0.356 | 0.37 | 0.337
